ChEMBL document CHEMBL3526086, “Identification of the oxidative and conjugative enzymes involved in the biotransformation of brivanib” (Drug Metab Dispos, 2012)
One block for each molecule: values may come before it.

Columns and labels:
Liver cytosol [1] = experiment: Drug level in human liver cytosol treated with 2 uM [14C](R)-1-(4-(4-fluoro-2-(hydroxymethyl)-1H-indol-5-yloxy)-5-methylpyrrolo[1,2-f][1,2,4]triazin-6-yloxy)propan-2-ol for 60 mins by LC/MS analysis in presence of PAPS; type: ADME, tissue-based
Liver microsome = experiment: Drug level in human liver microsomes treated with 2 uM [14C](R)-1-(4-(4-fluoro-2-methyl-1H-indol-5-yloxy)-5-methylpyrrolo[1,2-f][1,2,4]triazin-6-yloxy)propane-2-sulfonic acid for 60 mins by LC/MS analysis in presence of NADPH; type: ADME
Liver cytosol [2] = experiment: Drug level in human liver cytosol treated with 2 uM [14C](R)-4-fluoro-5-(6-(2-hydroxypropoxy)-5-methylpyrrolo[1,2-f][1,2,4]triazin-4-yloxy)-1H-indole-2-carboxylic acid for 60 mins by LC/MS analysis in presence of PAPS; type: ADME, tissue-based
Liver cytosol [3] = experiment: Drug metabolism in human liver cytosol assessed as (R)-4-fluoro-5-(5-methyl-6-(2-sulfopropoxy)pyrrolo[1,2-f][1,2,4]triazin-4-yloxy)-1H-indole-2-carboxylic acid formation at 2 uM for 60 mins by LC/MS analysis in presence of PAPS; type: ADME
Liver cytosol [4] = experiment: Drug metabolism in human liver cytosol assessed as sulfate conjugate formation at 2 uM for 60 mins in absence of PAPS by LC/MS analysis; type: ADME, tissue-based; settings: 1 h
[5] = substrate: Cc1cc2c(F)c(Oc3ncnn4cc(OC[C@@H](C)O)c(C)c34)ccc2[nH]1; experiment: Activity of human CYP1A2 assessed as enzyme-mediated (R)-1-(4-(4-fluoro-2-(hydroxymethyl)-1H-indol-5-yloxy)-5-methylpyrrolo[1,2-f][1,2,4]triazin-6-yloxy)propan-2-ol formation in presence of NADPH; type: ADME

Drug metabolism (Liver cytosol [1]): metabolite_detected
Drug metabolism (Liver microsome): metabolite_detected
Molecule: Cc1c(OC[C@@H](C)OS(=O)(=O)O)cn2ncnc(Oc3ccc4[nH]c(CO)cc4c3F)c12

Drug metabolism (Liver cytosol [1]): metabolite_detected
Drug metabolism (Liver cytosol [2]): metabolite_detected
Drug metabolism (Liver microsome): metabolite_detected
Molecule: Cc1c(OC[C@@H](C)OS(=O)(=O)O)cn2ncnc(Oc3ccc4[nH]c(C(=O)O)cc4c3F)c12

Drug metabolism (Liver cytosol [3]): metabolite_detected
Drug metabolism (Liver cytosol [4]): metabolite_not_detected
Molecule: Cc1c(OC[C@@H](C)O)cn2n[14cH]nc(Oc3ccc4[nH]c(C(=O)O)cc4c3F)c12

B1: Cytochrome P450 1A2 (Homo sapiens) (protein)
chain: MALSQSVPFSATELLLASAIFCLVFWVLKGLRPRVPKGLKSPPEPWGWPLLGHVLTLGKNPHLALSRMSQRYGDVLQIRIGSTPVLVLSRLDTIRQALVRQGDDFKGRPDLYTSTLITDGQSLTFSTDSGPVWAARRRLAQNALNTFSIASDPASSSSCYLEEHVSKEAKALISRLQELMAGPGHFDPYNQVVVSVANVIGAMCFGQHFPESSDEMLSLVKNTHEFVETASSGNPLDFFPILRYLPNPALQRFKAFNQRFLWFLQKTVQEHYQDFDKNSVRDITGALFKHSKKGPRASGNLIPQEKIVNLVNDIFGAGFDTVTTAISWSLMYLVTKPEIQRKIQKELDTVIGRERRPRLSDRPQLPYLEAFILETFRHSSFLPFTIPHSTTRDTTLNGFYIPKKCCVFVNQWQVNHDPELWEDPSEFRPERFLTADGTAINKPLSEKMMLFGMGKRRCIGEVLAKWEIFLFLAILLQQLEFSVPPGVKVDLTPIYGLTMKHARCEHVQARLRFSIN
Km [5]: 45 µM
Vmax [5]: 1.39e-06 µmol/min
